Measured values published in the NIST ThermoML archive (doi:10.1016/j.tca.2009.02.022).

How the values were obtained:
[1] = 303.15 K, 101.33 kPa, Liquid; for viscosity: Capillary tube (Ostwald / Ubbelohde) method; for mass density: Vibrating tube method
[2] = xn = mol fraction of the nth substance listed; details: 303.15 K, 101 kPa, Liquid; for viscosity: Capillary tube (Ostwald / Ubbelohde) method; for mass density: Vibrating tube method

CCOC(C)=O [ethyl acetate]
[1]
Details | mass density [kg/m3] | viscosity [mPa·s]
– | 888.5 | 0.4

CCCCCCCCO [octan-1-ol] + C1CCCCC1
[2]
Details | mass density [kg/m3] | viscosity [mPa·s]
x1 = 0.2008 | 780.75 | 1.242
x1 = 0.3755 | 789.9 | 1.792
x1 = 0.5205 | 796.98 | 2.4
x1 = 0.6054 | 800.89 | 2.847
x1 = 0.7044 | 805.34 | 3.46
x1 = 0.7758 | 808.38 | 3.983
x1 = 0.8541 | 811.63 | 4.633
x1 = 0.901 | 813.56 | 5.089
x1 = 0.9553 | 815.75 | 5.664

CCCCCCCCO [octan-1-ol]
[1]
Details | mass density [kg/m3] | viscosity [mPa·s]
– | 817.52 | 6.19

CCCCCCCCO [octan-1-ol] + CCOC(C)=O
[2]
Details | mass density [kg/m3] | viscosity [mPa·s]
x1 = 0.0809 | 878.16 | 0.537
x1 = 0.162 | 869.16 | 0.68
x1 = 0.3257 | 854.09 | 1.028
x1 = 0.4413 | 845.4 | 1.314
x1 = 0.5431 | 838.72 | 1.596
x1 = 0.6637 | 831.83 | 2.04
x1 = 0.7062 | 829.6 | 2.26
x1 = 0.8574 | 822.7 | 3.545
x1 = 0.9251 | 820.07 | 4.563

CCCCCO [pentan-1-ol] + CCOC(C)=O
[2]
Details | mass density [kg/m3] | viscosity [mPa·s]
x1 = 0.1095 | 877.42 | 0.474
x1 = 0.2164 | 867.46 | 0.541
x1 = 0.3291 | 857.43 | 0.626
x1 = 0.4303 | 848.83 | 0.722
x1 = 0.5202 | 841.5 | 0.829
x1 = 0.6103 | 834.44 | 0.97
x1 = 0.7187 | 826.3 | 1.211
x1 = 0.8051 | 820.09 | 1.508
x1 = 0.9009 | 813.46 | 2.017

CCCCO [butan-1-ol]
[1]
Details | mass density [kg/m3] | viscosity [mPa·s]
– | 801.9 | 2.25

C1CCCCC1 [cyclohexane]
[1]
Details | mass density [kg/m3] | viscosity [mPa·s]
– | 769.12 | 0.821

CCOC(C)=O [ethyl acetate] + CCCCO
[2]
Details | mass density [kg/m3] | viscosity [mPa·s]
x2 = 0.1411 | 875.69 | 0.467
x2 = 0.3184 | 859.95 | 0.563
x2 = 0.3797 | 854.67 | 0.609
x2 = 0.4659 | 847.1 | 0.673
x2 = 0.5634 | 838.65 | 0.766
x2 = 0.6782 | 828.8 | 0.92
x2 = 0.7595 | 821.86 | 1.076
x2 = 0.8312 | 815.82 | 1.287
x2 = 0.9291 | 807.64 | 1.736

CCCCCO [pentan-1-ol]
[1]
Details | mass density [kg/m3] | viscosity [mPa·s]
– | 807.11 | 2.839
